Values quoted from earlier work as cited in patent publication US9374996B2, “Agroformulation comprising copolymer of acrylic acid, poly(alkylene glycol) (meth)acrylate, and alkyl (meth)acrylate” (priority 2012, dated 2016).
≈ marks a conversion by molar mass, not a printed value.

Settings: at 20° C.

Q: Which solubility in water does the source give for `Cn1cc(C(=O)Nc2ccccc2-c2cc(F)c(F)c(F)c2)c(C(F)F)n1` [fluxapyroxad] here?
A: 3.88 µg/mL (≈ 10.2 µM)
